Measurements reported in paper PMC10169861, “Structural mechanism of human oncochannel TRPV6 inhibition by the natural phytoestrogen genistein” (Nature Communications, 2023).
Residue numbers refer to the chain shown, from its start. Values joined by “and” are separate entries in the source; they are usually repeats but may differ in a detail not shown here. Equal values may be shown once. Each block holds one compound with its values, some of them ahead of it.

Assays:
H582A mutant TRPV6 = target: T1, H582A mutant TRPV6 (Homo sapiens, UniProt Q9H1D0, H622A); assay: Fura-2-based measurement of Ca2+ uptake, H582A mutant channels; type: cell-based; conditions: for normalized change in F340/F380 (Ca2+ uptake relative to no genistein): H582A
T1 construct: Full-length wild-type or mutant human TRPV6 was expressed in HEK 293S cells as described above; expressed in transfected cells; host or cells: HEK 293S GnTI- cells, baculovirus (BacMam) transduction
T1 sequence (Q9H1D0 41-765 H622A limits assumed): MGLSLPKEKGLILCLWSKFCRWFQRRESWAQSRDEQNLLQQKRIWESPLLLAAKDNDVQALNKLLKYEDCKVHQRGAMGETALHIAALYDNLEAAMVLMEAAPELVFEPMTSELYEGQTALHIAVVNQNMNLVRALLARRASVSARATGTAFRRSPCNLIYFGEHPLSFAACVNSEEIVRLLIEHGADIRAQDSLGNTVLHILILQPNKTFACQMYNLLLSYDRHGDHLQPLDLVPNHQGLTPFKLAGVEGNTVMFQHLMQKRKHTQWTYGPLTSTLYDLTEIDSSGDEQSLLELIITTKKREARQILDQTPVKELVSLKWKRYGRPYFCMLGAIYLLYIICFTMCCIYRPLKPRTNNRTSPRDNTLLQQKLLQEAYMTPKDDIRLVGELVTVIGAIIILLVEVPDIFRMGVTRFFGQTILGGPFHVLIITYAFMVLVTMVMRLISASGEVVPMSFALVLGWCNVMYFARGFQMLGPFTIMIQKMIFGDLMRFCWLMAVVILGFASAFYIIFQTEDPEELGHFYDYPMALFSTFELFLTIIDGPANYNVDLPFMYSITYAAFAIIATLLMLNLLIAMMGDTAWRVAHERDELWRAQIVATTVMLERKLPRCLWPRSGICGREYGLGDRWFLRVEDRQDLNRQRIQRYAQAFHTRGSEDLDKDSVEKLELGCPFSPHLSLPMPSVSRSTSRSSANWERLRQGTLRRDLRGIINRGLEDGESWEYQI

[1] = target: T2, wild-type human TRPV6 (hTRPV6) (Homo sapiens, UniProt Q9H1D0); assay: Whole-cell patch-clamp recording of hTRPV6-mediated currents in HEK 293S cells; type: cell-based; conditions: for TRPV6-mediated current amplitude at −60 mV, normalized to the value in the absence of genistein: WT
T2 construct: Full-length wild-type or mutant human TRPV6 was expressed in HEK 293S cells as described above; expressed in transfected cells; host or cells: HEK 293S GnTI- cells, baculovirus (BacMam) transduction
T2 sequence (Q9H1D0 41-765 limits assumed): T1 sequence (Q9H1D0 41-765 H622A limits assumed) with A582H

H587A mutant TRPV6 = target: T3, H587A mutant TRPV6 (Homo sapiens, UniProt Q9H1D0, H627A); assay: Fura-2-based measurement of Ca2+ uptake, H587A mutant channels; type: cell-based; conditions: for normalized change in F340/F380 (Ca2+ uptake relative to no genistein): H587A
T3 construct: Full-length wild-type or mutant human TRPV6 was expressed in HEK 293S cells as described above; expressed in transfected cells; host or cells: HEK 293S GnTI- cells, baculovirus (BacMam) transduction
T3 sequence (Q9H1D0 41-765 H627A limits assumed): T1 sequence (Q9H1D0 41-765 H622A limits assumed) with A582H, H587A

[2] = target: T2, wild-type human TRPV6 (hTRPV6); assay: Fura-2-based ratiometric measurement of Ca2+ uptake in hTRPV6-expressing HEK 293S cells; type: cell-based; conditions: for normalized change in F340/F380 (Ca2+ uptake relative to no genistein): WT
H582A-H587A mutant TRPV6 = target: T4, H582A-H587A mutant TRPV6 (Homo sapiens, UniProt Q9H1D0, H622A/H627A); assay: Fura-2-based measurement of Ca2+ uptake, H582A-H587A mutant channels; type: cell-based; conditions: for normalized change in F340/F380 (Ca2+ uptake relative to no genistein): H582A-H587A
T4 construct: Full-length wild-type or mutant human TRPV6 was expressed in HEK 293S cells as described above; expressed in transfected cells; host or cells: HEK 293S GnTI- cells, baculovirus (BacMam) transduction
T4 sequence (Q9H1D0 41-765 H622A/H627A limits assumed): T1 sequence (Q9H1D0 41-765 H622A limits assumed) with H587A

human TRPV6 (human) = assay: cryo-EM structure; purified hTRPV6 in 150 mM NaCl, 20 mM Tris-HCl pH 8.0, 1 mM βME, 0.01% GDN, 0.001% CHS, with 2 mM genistein; two populations of particles: open (C4, 2.71 Å) and genistein-bound (C1, 2.66 Å)
[3] = Conc 10, individual experiments
[4] = Conc 30, individual experiments
[5] = Conc 100, individual experiments
[6] = Conc 300, individual experiments
[7] = Conc 1000, individual experiments
[8] = Conc 3000, individual experiments
[9] = Conc 10000, individual experiments

Compound: O=c1c(-c2ccc(O)cc2)coc2cc(O)cc(O)c12 [genistein, 4′,5,7-trihydroxyisoflavone]
IC50 (H582A mutant TRPV6): 184 ± 24 µM | Hill coefficient nHill (H582A mutant TRPV6; H582A mutant, n = 3): 0.73 ± 0.04 | normalized change in F340/F380 (Ca2+ uptake relative to no genistein) (H582A mutant TRPV6; Conc 3, individual experiments): 1.0287 and 0.8943 and 0.9077 | normalized change in F340/F380 (Ca2+ uptake relative to no genistein) (H582A mutant TRPV6; [3]): 0.885 and 0.8976 and 0.8985 | normalized change in F340/F380 (Ca2+ uptake relative to no genistein) (H582A mutant TRPV6; [4]): 0.8976 and 0.8451 and 0.809 | normalized change in F340/F380 (Ca2+ uptake relative to no genistein) (H582A mutant TRPV6; [5]): 0.6519 and 0.7074 and 0.5784 | normalized change in F340/F380 (Ca2+ uptake relative to no genistein) (H582A mutant TRPV6; [6]): 0.3755 and 0.336 and 0.3944 | normalized change in F340/F380 (Ca2+ uptake relative to no genistein) (H582A mutant TRPV6; [7]): 0.155 and 0.378 and 0.368 | normalized change in F340/F380 (Ca2+ uptake relative to no genistein) (H582A mutant TRPV6; [8]): 0.1504 and 0.2134 and 0.1508 | IC50 [1]: 40.7 ± 2.6 µM | inhibition at 50 µM ([1]; HEK293S, 50 µM genistein, –60 mV membrane potential, mean ± SEM, n = 13, read-out: inhibition of the hTRPV6-mediated current): 54 ± 4% | TRPV6-mediated current amplitude at −60 mV, normalized to the value in the absence of genistein ([1]; Conc 6.25 (µM per Supplementary Fig. 1), individual measurements): 0.8818 and 0.9418 and 0.9228 and 0.9734 and 0.9342 and 0.9778 and 0.9793 | TRPV6-mediated current amplitude at −60 mV, normalized to the value in the absence of genistein ([1]; Conc 12.5, individual measurements): 0.8695 and 0.8933 and 0.8898 and 0.8819 and 0.904 and 0.9294 and 0.929 | TRPV6-mediated current amplitude at −60 mV, normalized to the value in the absence of genistein ([1]; Conc 25, individual measurements): 0.744 and 0.6559 and 0.7679 and 0.6876 and 0.7485 and 0.5641 and 0.5617 | TRPV6-mediated current amplitude at −60 mV, normalized to the value in the absence of genistein ([1]; Conc 50, individual measurements): 0.3726 and 0.4985 and 0.3764 and 0.4722 and 0.3722 (2×) | Hill coefficient nHill, current inhibition ([1]; current amplitude at −60 mV, logistic fit, n = 7): 1.80 and 1.80 ± 0.13 | IC50 (H587A mutant TRPV6): 267 ± 29 µM | Hill coefficient nHill (H587A mutant TRPV6; H587A mutant, n = 3): 0.67 ± 0.03 | normalized change in F340/F380 (Ca2+ uptake relative to no genistein) (H587A mutant TRPV6; [3]): 0.9155 and 0.8981 and 0.9014 | normalized change in F340/F380 (Ca2+ uptake relative to no genistein) (H587A mutant TRPV6; [4]): 0.7349 and 0.8633 and 0.7848 | normalized change in F340/F380 (Ca2+ uptake relative to no genistein) (H587A mutant TRPV6; [5]): 0.5614 and 0.5516 and 0.49 | normalized change in F340/F380 (Ca2+ uptake relative to no genistein) (H587A mutant TRPV6; [6]): 0.505 and 0.498 and 0.5741 | normalized change in F340/F380 (Ca2+ uptake relative to no genistein) (H587A mutant TRPV6; [7]): 0.2958 and 0.3277 and 0.2981 | normalized change in F340/F380 (Ca2+ uptake relative to no genistein) (H587A mutant TRPV6; [8]): 0.1683 and 0.1914 and 0.1575 | normalized change in F340/F380 (Ca2+ uptake relative to no genistein) (H587A mutant TRPV6; [9]): 0.08605 and 0.071 and 0.06959 | normalized change in F340/F380 (Ca2+ uptake relative to no genistein) ([2]; Conc 10 (µM per Fig. 1c), individual experiments): 0.9427 and 0.8061 and 0.8429 | normalized change in F340/F380 (Ca2+ uptake relative to no genistein) [2, 4]: 0.7049 and 0.7764 and 0.7537 | normalized change in F340/F380 (Ca2+ uptake relative to no genistein) [2, 5]: 0.5343 and 0.4706 and 0.5414 | normalized change in F340/F380 (Ca2+ uptake relative to no genistein) [2, 6]: 0.3064 and 0.3178 and 0.351 | normalized change in F340/F380 (Ca2+ uptake relative to no genistein) [2, 7]: 0.1486 and 0.1458 and 0.1663 | normalized change in F340/F380 (Ca2+ uptake relative to no genistein) [2, 8]: 0.07643 and 0.09271 | IC50 ([2]; wild-type, 10 mM Ca2+ after pre-incubation, mean ± SEM, n = 3, read-out: IC50, inhibition of hTRPV6-mediated Ca2+ uptake): 113 µM | Hill coefficient nHill, inhibition of Ca2+ uptake ([2]; wild-type, n = 3): 0.77 ± 0.02 | IC50 (H582A-H587A mutant TRPV6): 318 ± 45 µM | Hill coefficient nHill (H582A-H587A mutant TRPV6; H582A-H587A mutant, n = 3): 0.71 ± 0.06 | normalized change in F340/F380 (Ca2+ uptake relative to no genistein) (H582A-H587A mutant TRPV6; [3]): 0.8831 and 0.8274 and 0.7934 | normalized change in F340/F380 (Ca2+ uptake relative to no genistein) (H582A-H587A mutant TRPV6; [4]): 0.9307 and 0.8133 and 0.7372 | normalized change in F340/F380 (Ca2+ uptake relative to no genistein) (H582A-H587A mutant TRPV6; [5]): 0.6996 and 0.5804 and 0.6176 | normalized change in F340/F380 (Ca2+ uptake relative to no genistein) (H582A-H587A mutant TRPV6; [6]): 0.6004 and 0.5392 and 0.6135 and 0.4739 | normalized change in F340/F380 (Ca2+ uptake relative to no genistein) (H582A-H587A mutant TRPV6; [7]): 0.3135 and 0.3303 | normalized change in F340/F380 (Ca2+ uptake relative to no genistein) (H582A-H587A mutant TRPV6; [8]): 0.1423 and 0.1604 and 0.1695 | normalized change in F340/F380 (Ca2+ uptake relative to no genistein) (H582A-H587A mutant TRPV6; [9]): 0.08246 and 0.05437 and 0.05709

stoichiometry N (human TRPV6 (human)): 4
Compound: human TRPV6 (natural protein)
